# Source: patent US20090215669A1, “COMPOSITIONS AND METHODS FOR TREATMENT OF DIABETES” (DIA-B TECH LIMITED, priority 2005, published 2009)
# Read-outs that look alike come from different tables or passages of the source. Marks after values point to notes of the source that are not given here. Peptide text beside a SMILES is read from it.
# Legend:
# female Zucker fa/fa rats [1] = experiment: Oral ISF402 followed by intraperitoneal insulin tolerance test (IPITT) in female Zucker fa/fa rats; assay type: in vivo, rat
# Method: Female Zucker fa/fa rats were purchased from Monash Animal Services (Monash University, Clayton, Australia). Rats were housed in the Biochemistry and Molecular Biology Animal House (Monash University, Victoria, Australia) and allowed to acclimatize for 7 days in an environmentally controlled room at 22° C. Rats were fed normal chow and water ad libitum. All experiments were performed according to Monash University Animal Care and Ethics Committee guidelines and approved by the Monash University Animal ethics committee. Rats of 16-18 weeks of age were fasted overnight with free access to water then anaesthetised with pentobarbitone (Nembutal, Phone Merieux, QLD, Australia) administered intraperitoneally (IP) at 35 mg/kg body weight. Blood glucose was monitored using Medisense glucometers (Abbott Laboratories, Abbott Park, Ill.) for one hour prior to administration of test substances. ISF402 was administered at 3 mg/kg by IP with 2 U/kg of bovine insulin (n=6) and controls were injected IP with insulin alone (n=8). Two experiments were performed where ISF402 was given orally. In the first experiment, controls were given saline orally by gavage (n=5) and the test group were given ISF402 orally at 15 mg/kg (n=5). After 15 minutes, insulin (2 U/kg) was injected IP. The procedure was repeated three days later with the control rats once again given saline and the treated rats given 30 mg/kg ISF402. A second experiment was performed on a separate group of rats where controls were given saline orally as before (n=5) and treated rats were given ISF402 orally at 30 mg/kg (n=5), followed 15 minutes later by IP injection of 2 U/kg insulin. For both experiments, after administration of peptide blood was collected from the tail vein and glucose measured immediately. Serum samples were also collected for later measurement of C-peptide and insulin using Linco Rat C-peptide and Insulin RIA kits according to the manufacturer's instructions (Linco Research Inc, St Charles, Mo.).
# insulin multimer = target: T1, insulin multimer (Bos taurus, UniProt P01317); experiment: Gel filtration chromatography of insulin mixed with ISF402; assay type: biochemical
# T1 construct: mixing insulin with ISF402 and separating molecular complexes by gel filtration chromatography
# T1 sequence (P01317 25-54 limits assumed): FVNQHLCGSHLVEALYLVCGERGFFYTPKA
# T1 sequence (P01317 85-105 limits assumed): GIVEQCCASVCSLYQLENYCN
# Excerpt: The effect of ISF402 on the multimerisation of insulin was examined in vitro by mixing insulin with ISF402 and separating molecular complexes by gel filtration chromatography, which separates on the basis of size (FIG. 7).
# female Zucker fa/fa rats [2] = experiment: Intravenous injection of female Zucker fa/fa rats: blood glucose, serum insulin, C-peptide, triglyceride; assay type: in vivo, rat; settings: for Change in Serum Triglyceride levels compared to the 0 time point: ISF402 alone 4.5 mg/kg, insulin, insulin + ISF402 1.5 mg/kg, mean ± SEM (n = 5); for maximum reduction in blood glucose: 45 minutes after administration
# [3] = tested on: C2C12 mouse myotube cells; experiment: Microphysiometry (extracellular acidification rate) in C2C12 cells; assay type: cell-based
# Method: C2C12 mouse myotube cells were seeded onto supports and differentiated. The cells were then placed in a Cytosensor (Molecular Devices) in non-buffered pH sensitive RPMI 1640 media. Once the cells were equilibrated at 37° C. with RPMI 1640 media (zero control), ISF402, insulin or ZnCl2 at increasing concentrations were added for a duration of 20 minutes, for each treatment. The Cytosensor measured the changed in pH as a response of cells to the treatment.
# The activity of the combination of insulin and ISF402 in insulin sensitisation was explored in C2C12 muscle cells using microphysiometry, a technique that measures extracellular acidification as an indicator of cell metabolism. An ISF402 concentration of 0.1 μM was used to test for sensitisation of insulin responsiveness as this concentration produces a sub-maximal (˜20%) response in C2C12 cells. In the presence of 0.1 μM ISF402, the cellular response to insulin was increased as shown by increasing extracellular acidification rate (ECAR) with increasing concentrations of insulin, particularly at low insulin concentrations (FIG. 3).
# [4] = Solubility of ISF402 at various pH and temperatures; assay type: physicochemical; settings: for solubility at 24 h: 25 mM ammonium bicarbonate buffer
# Method: Solid ISF402 was added to 50 μL aliquots of 25 mM ammonium bicarbonate buffer until no more solid dissolved. The total weight of the peptide added to each tube was noted and the pH of each solution was adjusted to approximately pH 8 by the addition of 1 M NaOH. Samples were incubated with constant shaking at either room temperature (23-25° C.) or 37° C. for 24 hours then centrifuged at 16000×g for 15 minutes. 2 μL aliquots of each supernatant were diluted with milliQ-H2O to an estimated concentration of 1 mg/mL. Samples were stored at −20° C. for later analysis by HPLC using UV detection (214 nm) to determine the exact concentration of ISF402. The pH of the remaining supernatant was measured. The pH was lowered by the addition of 2 μL of 5M HCl and tube contents were mixed and incubated under the two temperature conditions. The cycle of pH lowering, incubation and sampling was repeated until a pH of between 2 and 3 was achieved.
# female Zucker fa/fa rats [5] = experiment: Intraperitoneal injection of insulin with ISF402 in female Zucker fa/fa rats; assay type: in vivo, rat; settings: IP, 2 U/kg bovine insulin
# Method: Female Zucker fa/fa rats were purchased from Monash Animal Services (Monash University, Clayton, Australia). Rats were housed in the Biochemistry and Molecular Biology Animal House (Monash University, Victoria, Australia) and allowed to acclimatize for 7 days in an environmentally controlled room at 22° C. Rats were fed normal chow and water ad libitum. All experiments were performed according to Monash University Animal Care and Ethics Committee guidelines and approved by the Monash University Animal ethics committee.
# Rats of 16-18 weeks of age were fasted overnight with free access to water then anaesthetised with pentobarbitone (Nembutal, Phone Merieux, QLD, Australia) administered intraperitoneally (IP) at 35 mg/kg body weight. Blood glucose was monitored using Medisense glucometers (Abbott Laboratories, Abbott Park, Ill.) for one hour prior to administration of test substances. ISF402 was administered at 3 mg/kg by IP with 2 U/kg of bovine insulin (n=6) and controls were injected IP with insulin alone (n=8). Two experiments were performed where ISF402 was given orally. In the first experiment, controls were given saline orally by gavage (n=5) and the test group were given ISF402 orally at 15 mg/kg (n=5). After 15 minutes, insulin (2 U/kg) was injected IP. […] For both experiments, after administration of peptide blood was collected from the tail vein and glucose measured immediately. […]
# male Zucker fa/fa rats = experiment: Intravenous injection of male Zucker fa/fa rats: blood glucose, serum insulin, C-peptide; assay type: in vivo, rat; settings: 1 U/kg of bovine insulin iv
# Method: The Monash University Animal Ethics Committee approved all procedures performed on experimental animals. Zucker rats were purchased from the Monash University Central Animal Facility. Insulin and ISF401 were injected through the femoral vein while the rat was under anaesthesia (Pentobarbitone) and rats were humanely killed while still unconscious at the end of the procedure. The insulin concentration used for all in vivo experiments was 1 unit per kg of body weight. Blood was collected from the tail vein and glucose concentrations were measured using a Medisense glucometer. Insulin and C-peptide concentrations were measured in serum samples using a Linco Rat Insulin RIA kit according to the manufacturers instructions. Group sizes were between 5 and 8 rats per treatment.
# To investigate sex differences in the insulin sensitizing effect of ISF402, age-matched male Zucker fa/fa rats were injected intravenously with ISF402 (1.5 mg/kg) and insulin as described above for female rats. […] In comparison, co-injection of ISF402 with the insulin led to a decrease in blood glucose 20 minutes after injection which remained low for a further 25 minutes (FIG. 13A). The greatest reduction in blood glucose was 0.98±0.31 mmol/L and was achieved 30 minutes after injection. […]
# [6] = oral ISF402 followed by IP insulin injection
# [7] = iv, ISF402 4.5 mg/kg without insulin
compound,measurement,setting,value
"CC(C)[C@H](N)C(=O)N[C@@H](Cc1c[nH]cn1)C(=O)N[C@H](C(=O)N[C@@H](CC(=O)O)C(N)=O)[C@@H](C)O [ISF402, Val-His-Thr-Asp-NH2] (H-VHTD-NH2)",blood glucose in IPITT compared to control,"female Zucker fa/fa rats [1]; ISF402 15 mg/kg oral, insulin 2 U/kg IP 15 minutes later",did not reach statistical significance
same,blood glucose in IPITT compared to the insulin-injected control group,female Zucker fa/fa rats [1]; ISF402 30 mg/kg oral to the same rats three days after 15 mg/kg,significant reduction in blood glucose
same,time of greatest decrease in blood glucose after administration,"female Zucker fa/fa rats [1]; oral 30 mg/kg ISF402, IPITT",2 h
same,C-peptide concentrations,female Zucker fa/fa rats [1]; [6],did not change
same,circulating insulin concentrations,female Zucker fa/fa rats [1]; [6],did not change
same,blood glucose in IPITT compared to control,female Zucker fa/fa rats [1]; single dose of 30 mg/kg ISF402 oral by gavage,significant decrease in blood glucose
same,effect on the size of the insulin multimer,insulin multimer,reduces the size of the insulin multimer
same,elution volume of insulin when mixed with ISF402,insulin multimer; insulin without pre-mixing eluted at 14-15 mL,16 to 17 mL
same,Change in Serum Triglyceride levels compared to the 0 time point,female Zucker fa/fa rats [2]; Time 0 minutes,0 mg/dL
same,Change in Serum Triglyceride levels compared to the 0 time point,female Zucker fa/fa rats [2]; Time 10 minutes,+11.3 ± 5.4 mg/dl
same,Change in Serum Triglyceride levels compared to the 0 time point,female Zucker fa/fa rats [2]; Time 45 minutes,−16 ± 7.2^a mg/dl
same,Change in Serum Triglyceride levels compared to the 0 time point,female Zucker fa/fa rats [2]; Time 60 minutes,+44.9 ± 42.7 mg/dl
same,maximum reduction in blood glucose,"female Zucker fa/fa rats [2]; iv, ISF402 4.5 mg/kg without exogenous insulin",1.02 ± 0.27 mmol/L
same,circulating insulin,female Zucker fa/fa rats [2]; [7],no observed increase in circulating insulin
same,serum C-peptide concentrations,female Zucker fa/fa rats [2]; [7],reduced
same,optimum ISF402 dose,"female Zucker fa/fa rats [2]; iv, co-injected with insulin 1 U/kg",1.5 mg/kg
same,optimal intravenous dose of ISF402,"female Zucker fa/fa rats [2]; iv, without exogenous insulin",4.5 mg/kg
same,glucose lowering response across the range of ISF402 doses,"female Zucker fa/fa rats [2]; iv, 0.5-4.5 mg/kg with insulin, 3-10 mg/kg alone, AUC over 60 minutes (FIG. 2A)",dose dependent and bell shaped
same,magnitude of the maximal reduction in blood glucose compared to controls,"female Zucker fa/fa rats [2]; iv, ISF402 4.5 mg/kg vs saline, ISF402 1.5 mg/kg with insulin vs insulin alone",0.95 mmol/L
same,"response in C2C12 cells (sub-maximal, extracellular acidification)",[3]; 0.1 μM ISF402,~20%
same,"cellular response to insulin (extracellular acidification rate, ECAR)","[3]; in the presence of 0.1 μM ISF402, increasing insulin concentrations",increased
same,solubility at 24 h,"[4]; 37° C., pH 6, read-out: minimum solubility",179 mg/mL
same,solubility at 24 h,"[4]; both at room temperature and 37° C., below pH 4.6 and above pH 6.9, read-out: solubility",300 to 450 mg/mL
same,solubility at 24 h,"[4]; room temperature, pH 6.3, read-out: lowest solubility",165 mg/mL
same,pH of minimum solubility,[4]; both temperatures,5.7-6.3
"Insulin: Insulin (Bovine pancreas) containing 0.6% zinc, purchased from Sigma",blood glucose after insulin alone,female Zucker fa/fa rats [5],only a small reduction in blood glucose
same,Change in Serum Triglyceride levels compared to the 0 time point,female Zucker fa/fa rats [2]; Time 0 minutes,0 mg/dL
same,Change in Serum Triglyceride levels compared to the 0 time point,female Zucker fa/fa rats [2]; Time 10 minutes,+39.6 ± 15.1 mg/dl
same,Change in Serum Triglyceride levels compared to the 0 time point,female Zucker fa/fa rats [2]; Time 45 minutes,+21.1 ± 23.9 mg/dl
same,Change in Serum Triglyceride levels compared to the 0 time point,female Zucker fa/fa rats [2]; Time 60 minutes,+33.3 ± 19.8 mg/dl
same,blood glucose response to insulin alone,"female Zucker fa/fa rats [2]; female rats, 1 U/kg of bovine insulin iv",small decrease in blood glucose
same,maximum reduction in blood glucose,"female Zucker fa/fa rats [2]; iv, insulin 1 U/kg + ISF402 1.5 mg/kg, or insulin alone at the same time point",0.68 ± 0.22 mmol/L
same,blood glucose response to insulin alone,male Zucker fa/fa rats,no decrease at all
